The structures appear in SMILES notation.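 Cells were grown in 96-well plates and exposed to each compound for 48 hours at five concentrations; endpoints were interpolated linearly between bracketing concentrations, or set to the highest concentration if not reached. Abbreviation: GI50, concentration required for 50% inhibition of growth.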 The source made the active and inactive calls. No stated cut-off is given here; in the data, active = GI50 up to about 1.1 µM and inactive = higher.

The source of these data is ChEMBL document CHEMBL1201862, “PubChem BioAssay data set” (2004).

Test systems include ACHN; HCT-116; Hs-578T; IGROV-1; KM12; NCI-H23; NCI-H522; NCI/ADR-RES; OVCAR-3; OVCAR-5; SN12C; SNB-19; TK-10; UACC-257; CAKI-1; LOX IMVI; A498.
Common to all, as to test: inhibition of tumour cell growth, NCI panel, 48 h

In the case of `COC(=O)c1c(C)c2c(c(C)c1O)OC(=O)c1c(C)cc(O)c(C=O)c1O2`, the GI50 was > 100 µM (inactive) in the experiment on ACHN; > 100 µM (inactive) in the experiment on HCT-116; 12.5 µM (inactive) in the experiment with Hs-578T; 69.7 µM (inactive) with IGROV-1; > 100 µM (inactive) with KM12; > 100 µM (inactive) with NCI-H23. Moreover, the GI50 in the experiment on NCI-H522, in the experiment with NCI/ADR-RES, in the experiment on OVCAR-3, in the experiment with OVCAR-5, with SN12C and in the experiment with SNB-19 was > 100 µM (inactive) throughout. For the same compound, the GI50 in the experiment on TK-10 and in the experiment with UACC-257 was > 100 µM (inactive) throughout.

`COc1ccc(CC2OC3(CCCCC3)CC3CCCCN32)cc1` (stereo not given): the GI50 in the experiment on ACHN is > 100 µM (inactive); with CAKI-1, > 100 µM (inactive); in the experiment on HCT-116, 43.8 µM (inactive); in the experiment with Hs-578T it was 36.7 µM (inactive); in the experiment on IGROV-1, > 100 µM (inactive); with KM12 it was > 100 µM (inactive). Moreover, the GI50 in the experiment on LOX IMVI is 48.3 µM (inactive); in the experiment with NCI-H23 it was > 100 µM (inactive); in the experiment with NCI-H522, > 100 µM (inactive); with NCI/ADR-RES, 50.1 µM (inactive); in the experiment with OVCAR-3, 46 µM (inactive); with OVCAR-5, > 100 µM (inactive). Besides, the GI50 in the experiment on SN12C, in the experiment on SNB-19, with TK-10 and in the experiment on UACC-257 was > 100 µM (inactive) in each case.

`CCOP(=O)(OCC)c1ccc(=O)[nH]c1-c1cccs1`: the GI50 in the experiment with A498, with ACHN, in the experiment on CAKI-1, in the experiment with HCT-116, in the experiment on Hs-578T and in the experiment with IGROV-1 was > 100 µM (inactive) throughout. In addition, the GI50 with KM12, with NCI-H23, with NCI-H522, in the experiment with NCI/ADR-RES, with OVCAR-3 and with OVCAR-5 was > 100 µM (inactive) each time. Also, the GI50 in the experiment on SN12C, with SNB-19, in the experiment with TK-10 and in the experiment on UACC-257 was > 100 µM (inactive) each time.

`COc1cc(C2SC(=N)Nc3c2c(C)nn3C(=O)c2ccc(Cl)cc2)ccc1O` (stereo not given): the GI50 in the experiment on ACHN, with CAKI-1, with HCT-116, in the experiment with Hs-578T, in the experiment with IGROV-1 and in the experiment on KM12 was > 10 µM (inactive) in each case. Moreover, the GI50 in the experiment with LOX IMVI, in the experiment with NCI-H23, in the experiment with NCI-H522, in the experiment with NCI/ADR-RES, in the experiment with OVCAR-3 and in the experiment on OVCAR-5 was > 10 µM (inactive) each time. Besides, the GI50 in the experiment with SN12C, in the experiment with SNB-19, with TK-10 and with UACC-257 was > 10 µM (inactive) throughout.

In the case of `Cc1ccc(C2NC(=N)NC3=C2CCOc2c3ccc3ccccc23)cc1` (stereo not given), the GI50 in the experiment on A498 is 17.3 µM (inactive); with CAKI-1, 3.66 µM (inactive); with HCT-116, 1.93 µM (inactive); with Hs-578T, 20.5 µM (inactive); with KM12 it was 4.21 µM (inactive); in the experiment with NCI-H23, 34.9 µM (inactive). In addition, the GI50 in the experiment with NCI-H522 was 33.5 µM (inactive); in the experiment on NCI/ADR-RES, 15.1 µM (inactive); in the experiment with OVCAR-3, 4.92 µM (inactive); in the experiment on OVCAR-5, 41.6 µM (inactive); in the experiment with SN12C, 6.38 µM (inactive); in the experiment with SNB-19, 29.6 µM (inactive). The figures for the GI50 in the experiment with TK-10 and with UACC-257 were 29.4 µM (inactive) and 31.3 µM (inactive), respectively.

Take `CCOC(=O)C1C(c2ccccc2)C2(C#N)C(=N)OC1(C)C2(C#N)C#N` (stereo not given): the GI50 is 32.7 µM (inactive) in the experiment with A498; 20.9 µM (inactive) in the experiment with ACHN; 6.61 µM (inactive) in the experiment on CAKI-1; 16.3 µM (inactive) in the experiment with HCT-116; 29.5 µM (inactive) with Hs-578T; 18.5 µM (inactive) with IGROV-1. The GI50 with KM12 was > 10 µM (inactive); in the experiment with LOX IMVI, 16 µM (inactive); in the experiment with NCI-H23, 17.5 µM (inactive); in the experiment on NCI/ADR-RES it was 27.1 µM (inactive); in the experiment on OVCAR-5, 21.7 µM (inactive); in the experiment on SN12C, > 10 µM (inactive). Moreover, the GI50 was 40.6 µM (inactive) in the experiment on SNB-19, 26.2 µM (inactive) with TK-10 and 20.5 µM (inactive) in the experiment with UACC-257.

In the case of `Cc1ccc(/C=N\NC(=O)c2ccncc2)s1`, the GI50 in the experiment on A498, in the experiment with ACHN, in the experiment with CAKI-1, in the experiment on HCT-116, in the experiment with Hs-578T and with IGROV-1 was > 100 µM (inactive) each time. Moreover, the GI50 in the experiment on KM12, with NCI-H23, in the experiment with NCI-H522, in the experiment with NCI/ADR-RES, in the experiment on OVCAR-3 and with OVCAR-5 was > 100 µM (inactive) in each case. The GI50 with SN12C, in the experiment on SNB-19, with TK-10 and in the experiment on UACC-257 was > 100 µM (inactive) throughout.

Turning to `Cc1cc(C#N)c[n+](C)c1`, the GI50 with A498, in the experiment with ACHN, in the experiment on CAKI-1, in the experiment on HCT-116, in the experiment with Hs-578T and with IGROV-1 was > 100 µM (inactive) each time. For the same compound, the GI50 in the experiment on KM12, with NCI-H23, in the experiment on NCI-H522, in the experiment on NCI/ADR-RES, in the experiment with OVCAR-3 and in the experiment with OVCAR-5 was > 100 µM (inactive) in each case. In addition, the GI50 in the experiment on SN12C, in the experiment with SNB-19, with TK-10 and with UACC-257 was > 100 µM (inactive) each time.

For `O=C(O)CCC(NC(=O)c1ccc(Nc2nc3ccccc3nc2C(=O)O)cc1)C(=O)O` (stereo not given), the GI50 in the experiment with ACHN, with CAKI-1, in the experiment on HCT-116, in the experiment on Hs-578T, with IGROV-1 and in the experiment with KM12 was > 100 µM (inactive) in each case. In addition, the GI50 with NCI-H23, in the experiment with NCI-H522, in the experiment on NCI/ADR-RES, in the experiment on OVCAR-3, in the experiment with OVCAR-5 and in the experiment with SN12C was > 100 µM (inactive) throughout. The GI50 in the experiment with SNB-19, in the experiment on TK-10 and in the experiment with UACC-257 was > 100 µM (inactive) in each case.

For `COc1cccc(/N=N/C(=N\NC(=O)c2ccc(C)cc2)c2ccc(N(CCC#N)CCC#N)cc2C)c1`, the GI50 is 44.3 µM (inactive) with A498; > 100 µM (inactive) in the experiment on ACHN; > 100 µM (inactive) with CAKI-1; 68.1 µM (inactive) in the experiment with HCT-116; 54.1 µM (inactive) with Hs-578T; > 100 µM (inactive) in the experiment on IGROV-1. The GI50 is 73.5 µM (inactive) with KM12; > 100 µM (inactive) with LOX IMVI; > 100 µM (inactive) in the experiment on NCI-H23; > 100 µM (inactive) with NCI/ADR-RES; 37.6 µM (inactive) in the experiment with OVCAR-3; > 100 µM (inactive) with OVCAR-5. Besides, the GI50 in the experiment on SN12C is > 100 µM (inactive); in the experiment on SNB-19 it was > 100 µM (inactive); with TK-10 it was > 100 µM (inactive); with UACC-257 it was 42.8 µM (inactive).

Consider `C=C1CC(C)(c2cccc(Nc3nc4ccccc4c4occc34)c2)OC1=O` (stereo not given), for which the GI50 was 17.7 µM (inactive) with A498; 4.8 µM (inactive) in the experiment with ACHN; 3.98 µM (inactive) in the experiment on CAKI-1; 1.67 µM (inactive) in the experiment with HCT-116; 3.25 µM (inactive) in the experiment with Hs-578T; 5.08 µM (inactive) in the experiment with KM12. For the same compound, the GI50 was 1.99 µM (inactive) in the experiment with LOX IMVI; 8 µM (inactive) in the experiment on NCI/ADR-RES; 4.8 µM (inactive) in the experiment on OVCAR-3; 14.3 µM (inactive) with OVCAR-5; 2.83 µM (inactive) with SN12C; 17.2 µM (inactive) in the experiment with SNB-19. Also, the GI50 in the experiment on TK-10 is 3.56 µM (inactive); in the experiment with UACC-257, 0.0218 µM (active).

With `CC1=NN=C(N)N/C1=C\C(Sc1ccc(Cl)cc1)c1ccc(Cl)cc1Cl` (stereo not given), the GI50 with A498 is 19.2 µM (inactive); with ACHN it was 14.2 µM (inactive); in the experiment with CAKI-1 it was 25.4 µM (inactive); in the experiment with HCT-116 it was 8.02 µM (inactive); with Hs-578T, 17.5 µM (inactive); with IGROV-1, 8.61 µM (inactive). Besides, the GI50 in the experiment with KM12 is 6.41 µM (inactive); with LOX IMVI, 14.3 µM (inactive); with NCI-H23, 13.1 µM (inactive); with NCI-H522, 3.79 µM (inactive); with NCI/ADR-RES, 17.6 µM (inactive); with OVCAR-5 it was 15.9 µM (inactive). Also, the GI50 is 24.8 µM (inactive) with SN12C, 12.4 µM (inactive) with SNB-19, 17.5 µM (inactive) in the experiment with TK-10 and 16.8 µM (inactive) in the experiment on UACC-257.

For the compound `Cc1ccc(C)c(N2C(=O)C(=O)c3c(C)ccc(C)c32)c1`, the GI50 is 17.1 µM (inactive) in the experiment with ACHN; 25.5 µM (inactive) with CAKI-1; 16.3 µM (inactive) in the experiment on HCT-116; 22.4 µM (inactive) in the experiment on Hs-578T; 15.3 µM (inactive) in the experiment with IGROV-1; 24.5 µM (inactive) in the experiment with KM12. Also, the GI50 with LOX IMVI is 17.4 µM (inactive); with NCI-H23 it was 21 µM (inactive); in the experiment on NCI-H522, 15.5 µM (inactive); in the experiment with NCI/ADR-RES, 23.6 µM (inactive); with OVCAR-3, 16.3 µM (inactive); in the experiment on OVCAR-5, 57.1 µM (inactive). Also, the GI50 in the experiment with SN12C is 26.8 µM (inactive); in the experiment with SNB-19, 40.6 µM (inactive); in the experiment on TK-10, 28.8 µM (inactive); in the experiment on UACC-257, 24 µM (inactive).
